Laboratory results taken from US10308649B2, “Compounds and methods to suppress autoimmune response” (Oregon State University, priority 2014, dated 2019).

Assays:
[1] = test system: NOD.Foxp3DTR mice; test: Islet infiltration in Foxp3 depleted (DT treated) NOD.Foxp3DTR mice; type: in vivo, mouse; conditions: day 9, AHRL1 60 mg/kg oral days -1, 1, 3, 5, 7, TCDD day -1
Source text: FIGS. 6a-6e illustrate the therapeutic effects of treatment with an AhR ligand on a Foxp3 deficient subject using a NOD.Foxp3− mouse model. […]. NOD.Foxp3^DTR mice were obtained from the Juvenile Diabetes Research Foundation Center (JDRF) for Immune Tolerance in Diabetes at Harvard (CITDH). Mice were bred and maintained under specific pathogen-free conditions at Oregon State University facilities. All experimental procedures using animals were approved by the Institutional Animal Care and Use Committee at Oregon State University.
FIG. 6a illustrates details of the mouse model used to analyze the therapeutic effects and mechanisms by which AhR activation alters T cell differentiation. […] Arrows 152 illustrate the NOD.Foxp3^DTR mice were orally dosed with 60 mg/kg AHRL1 on days −1, 1, 3, 5, and 7 relative to DT treatment on day 0. The carrier for AHRL1 was a 30% DMSO, 20% CREMAPHOR, 50% PECEOL solution. Data was also collected from NOD.Foxp3^DTR mice treated with TCDD on day −1 relative to DT treatment on day 0. […]
The pancreases from the sacrificed mice were excised, sectioned, and stained with hematoxylin and eosin for analysis of islet infiltration by inflammatory CTL cells. Islet infiltration was scored on sequential hematoxylin and eosin stained pancreas sections separated by 200 μm. Islets were scored as no infiltration, less than 50% infiltration, or greater than 50% infiltration. […]

[2] = target: T1, AhR (Mus musculus, UniProt P30561); test: Competitive inhibition of [3H] 3-MC binding to AhR
T1 sequence (P30561 10-848): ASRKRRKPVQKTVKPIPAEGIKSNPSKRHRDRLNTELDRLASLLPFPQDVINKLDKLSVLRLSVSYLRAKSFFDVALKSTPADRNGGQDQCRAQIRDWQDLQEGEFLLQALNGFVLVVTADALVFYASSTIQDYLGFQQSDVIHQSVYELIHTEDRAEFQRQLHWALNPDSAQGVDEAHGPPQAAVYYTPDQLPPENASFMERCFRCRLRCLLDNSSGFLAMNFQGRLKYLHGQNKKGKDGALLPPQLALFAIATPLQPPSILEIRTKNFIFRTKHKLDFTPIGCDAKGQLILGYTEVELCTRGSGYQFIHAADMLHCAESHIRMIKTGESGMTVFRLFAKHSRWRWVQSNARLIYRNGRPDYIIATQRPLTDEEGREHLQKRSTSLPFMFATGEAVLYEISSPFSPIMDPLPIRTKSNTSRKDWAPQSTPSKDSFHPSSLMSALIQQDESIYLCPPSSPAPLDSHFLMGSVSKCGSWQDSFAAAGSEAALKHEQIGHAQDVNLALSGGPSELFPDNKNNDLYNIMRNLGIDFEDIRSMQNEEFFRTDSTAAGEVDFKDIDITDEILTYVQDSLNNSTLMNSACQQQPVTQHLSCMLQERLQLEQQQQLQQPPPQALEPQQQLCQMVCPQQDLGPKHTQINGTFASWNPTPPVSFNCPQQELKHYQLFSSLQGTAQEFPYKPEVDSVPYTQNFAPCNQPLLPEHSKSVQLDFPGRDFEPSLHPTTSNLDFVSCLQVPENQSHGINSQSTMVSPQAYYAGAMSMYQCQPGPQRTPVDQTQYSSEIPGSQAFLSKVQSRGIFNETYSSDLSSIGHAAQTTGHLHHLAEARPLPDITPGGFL
Source text: 3-MC binding to AhR. […] 3-methylcholanthrene (3-MC) to AhR.

[3] = test system: B6D2F1 host mice; test: 15-day GVHD model in B6D2F1 host mice; type: in vivo, mouse
Method: GVHD was established using donor cells obtained from wild type or AhR-deficient mice. B6D2F1 host mice were injected with wild type (WT) or AhR^−/− splenocytes to initiate the graft versus host (GVH) response. Due to a limited number of AhR-deficient mice available, whole splenocytes rather than purified T cells were used to initiate the GVH response. Host mice were given AHRL1 or vehicle treatments daily for 15 days. The vehicle consisted of a mixture of 6.7% anisole and peanut oil. A single loading dose of 10 mg/kg AHRL1 was given at the time of donor cell injection and a maintenance dose of 2 mg/kg AHRL1 was given every day thereafter until termination of the experiment on day 15.
The progression of GVHD in the host mice was monitored and a clinical GVHD pathology score was calculated. At termination of the 15-day study, each animal was evaluated and given a clinical GVHD pathology score based on five criteria: changes in weight, posture, activity, fur texture, and mortality. The clinical GVHD pathology score was assessed on a scale of 0 to 3, where 0 was normal, 1 was moderate morbidity, 2 was severe morbidity, and 3 was death.
In a separate study, the effect of AHRL1 on donor cell engraftment was examined and directly compared with the effect of TCDD. B6D2F1 host mice in groups of 6 were injected with splenocytes from C57Bl/6 mice to initiate the GVH response, and treated with AHRL1 or vehicle daily for 15 days. The vehicle consisted of a mixture of 6.7% anisole and peanut oil. A single loading dose of 10 mg/kg AHRL1 was given at the time of donor cell injection and a maintenance dose of 2 mg/kg AHRL1 was given every day thereafter until termination of the experiment on day 15. 15 μg/kg of TCDD was given to an additional group of 6 mice on day 0 as a positive control. […] The donor cells were identified in the host spleen as the H-2D^d negative population.

[4] = in humans; cited from earlier work
[5] = test system: NOD.Foxp3DTR mice; test: Flow cytometry of PLN cells of NOD.Foxp3DTR mice; type: in vivo, mouse
Method: FIG. 6a illustrates details of the mouse model used to analyze the therapeutic effects and mechanisms by which AhR activation alters T cell differentiation. […] Arrows 152 illustrate the NOD.Foxp3^DTR mice were orally dosed with 60 mg/kg AHRL1 on days −1, 1, 3, 5, and 7 relative to DT treatment on day 0. The carrier for AHRL1 was a 30% DMSO, 20% CREMAPHOR, 50% PECEOL solution. Data was also collected from NOD.Foxp3^DTR mice treated with TCDD on day −1 relative to DT treatment on day 0. […] Non-obese diabetic Foxp3 wild type (NOD.Foxp3^WT) mice treated with DT and NOD.Foxp3^DTR mice treated with vehicle were used as controls. The vehicle was the carrier for AHRL1. Arrow 158 illustrates sacrifice of the mice on day 9.
The leukocyte composition of the pancreas and draining lymph nodes was analyzed using flow cytometry. Draining lymph nodes and pancreata were excised from the sacrificed mice, and single cell suspensions were prepared for analysis with flow cytometry. […] Data were acquired using an FC-500 flow cytometer (BECKMAN COULTER) and compensated and analyzed using FLOWJO software. […]

[6] = test system: CYP1A1; test: CYP1A1 mRNA induction in Hepa-1 cells; conditions: 1 nM
Method: The levels of CYP1A1 expression were determined by measuring CYP1A1 messenger ribonucleic acid (mRNA) levels.

In the case of `Clc1cc2c(cc1Cl)Oc1cc(Cl)c(Cl)cc1O2` [TCDD, 2,3,7,8-tetrachlorodibenzo-p-dioxin], the “islets showing no infiltration” value [1] is reported as “greater percentage of islets being free from infiltration”, the IC50 [2] is reported as 4.7 nM and the “total number of donor CD4+ and CD8+ T cells engrafted in the host spleen” value ([3]; day 15, AHRL1 10 mg/kg then 2 mg/kg daily, TCDD 15 μg/kg day 0) is reported as “reduced total number”. For the same compound, the “percentage and number of activated donor CD8+ T cells expressing a CTL phenotype (CD8+CD44hiCD45RBlow)” value ([3]; host spleen, day 15) was “reduce the percentage and number”, the “percentage and number of host B cells (CD19+ cells)” value ([3]; host spleen, day 15, vs vehicle) was “increased percentage and number” and the half-life [4] was “approximately seven”. For the same compound, the “percentage of CD4+Foxp3- cells that were Nrp1+” value ([5]; DT treated NOD.Foxp3DTR mice) was “decreased”, the “percentage of CD4+Foxp3- cells that were RORγt+” value ([5]; TCDD treated mice) was 0.42% and the “CYP1A1 mRNA induction” value [6] was “comparable level of induction”.
